Among the data in PubChem BioAssay (NCI) are GI50 and TGI values, retold here.

SMILES strings stand for the structures.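 Exposure lasted 48 hours, with cells grown in 96-well plates and compounds tested at five concentrations. GI50 marks 50% less growth. TGI denotes the concentration required for complete inhibition of growth.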 A value given as a limit tells only on which side of the number the result lay.

Assay in all cases: DTP human tumour cell line panel, 48 h
The subject of assay [1] is SF-539 CNS.
The subject of assay [2] is ACHN renal.
Assay [3] deals with SF-295 CNS.
The test system of assay [4] is MCF7 breast.
The subject of assay [5] is HOP-62 NSCLC.
Assay [6] deals with SK-MEL-5 melanoma.
In assay [7] the test system is SK-MEL-2 melanoma.
For assay [8], the system named is SF-268 CNS.
In assay [9] the test system is PC-3 prostate.
For assay [10], the system named is MALME-3M melanoma.

With `NC(N)=N/N=C/c1c(-c2ccccn2)nc2sc(Cl)cn12`, the GI50 in assay [1] is 1.54 µM; in assay [2] it was 7.49 µM; in assay [3] it was 6.93 µM; in [4], 13.2 µM; in assay [5], 9.58 µM; in [6], 8.47 µM. For the same compound, the GI50 in [7] was 7.93 µM; in assay [8] it was 8.04 µM; in assay [9], 10.9 µM. Moreover, the TGI in [1] was 3.49 µM; in assay [2], 15.3 µM; in [3], 13.4 µM; in assay [4], 50 µM; in [5] it was 17.5 µM; in [6], 15.4 µM. Also, the results for the total growth inhibition concentration (TGI) in [7], in assay [8] and in assay [9] were 15.1 µM, 17.8 µM and 22 µM, respectively.
As to `Cc1c(C(=O)NN)nnn1-c1ccnc2c(C(F)(F)F)cccc12`, the GI50 in [1], in [2], in assay [3], in assay [4], in assay [5] and in [6] was greater than 100 µM each time. Besides, the GI50 in assay [7], in assay [8] and in assay [9] was greater than 100 µM each time. For the same compound, the TGI in [1], in assay [2], in [3], in assay [4], in assay [5] and in [6] was greater than 100 µM each time. Besides, the concentration for total growth inhibition (TGI) in assay [7], in assay [8] and in [9] was greater than 100 µM throughout.
Consider `Cn1c(N)nc2c(nc(OCc3ccccc3)n2C2OC(CO)C(O)C2O)c1=O` (centres undefined), for which the total growth inhibition concentration (TGI) in assay [10], in [2], in [3], in assay [4], in [5] and in assay [6] was greater than 100 µM throughout. In addition, the total growth inhibition concentration (TGI) in assay [7], in assay [8] and in assay [9] was greater than 100 µM throughout.
On to `FC(F)(F)c1ccc2c(Nc3cccc(C4CC(c5ccccc5)=NN4c4ccc(Cl)cc4)c3)ccnc2c1` (centres undefined), for which the GI50 in assay [1] was 4.78 µM; in assay [10], 4.38 µM; in assay [2], 2.9 µM; in [3], 2.25 µM; in assay [4], 1.67 µM; in [6], 8.77 µM. In addition, the GI50 in assay [7] is 15.1 µM; in assay [8], 3.35 µM; in [9], 3.77 µM. Also, the TGI in assay [1] was 19.5 µM; in assay [10], 21 µM; in assay [2] it was 11.1 µM; in assay [3], 8.67 µM; in assay [4] it was 10.6 µM; in [6], 26.5 µM. The TGI in [7] worked out at 42.9 µM; in assay [8], 21.5 µM; in assay [9], 16.6 µM.
Consider `CCCCCC(C(O)C#N)C(O)(C(F)(F)F)C(F)(F)F` (centres undefined), for which the TGI in [1], in [10], in assay [2], in assay [3], in [4] and in assay [5] was greater than 10 µM in each case. Besides, the TGI in [6], in assay [8] and in assay [9] was greater than 10 µM in each case.
`COc1cc(/C=C2\CC3C4CC=C5CC(N6CCCC6)CC[C@]5(C)C4CC[C@]3(C)C2OC(C)=O)ccc1OCCN1CCCC1` (some centres undefined): the GI50 in assay [1] is 1.92 µM; in assay [10], 1.49 µM; in assay [2], 1.73 µM; in assay [3], 12.7 µM; in [4] it was 1.62 µM; in assay [5], 19.7 µM. In addition, the GI50 in [7] was 2.09 µM; in assay [8], 2.53 µM; in [9], 3.45 µM. For the same compound, the concentration for total growth inhibition (TGI) in assay [1] is 3.5 µM; in assay [10] it was 3.07 µM; in assay [2] it was 3.22 µM; in assay [3], 26.5 µM; in [4], 3.17 µM; in assay [5], 34.6 µM. The figures for the total growth inhibition concentration (TGI) in assay [7], in assay [8] and in [9] were 3.7 µM, 6.04 µM and 10.2 µM, respectively.
Consider `C=CCOc1c(Br)cc(Br)cc1Br`, for which the GI50 in [1] was 20.9 µM; in [2], 16.5 µM; in assay [3], 2.71 µM; in assay [4], 9.32 µM; in assay [5], 23.5 µM; in assay [6], 43.4 µM. In addition, the GI50 was greater than 100 µM in assay [7], 21.1 µM in assay [8] and 68 µM in assay [9]. In addition, the TGI is greater than 100 µM in assay [1]; greater than 100 µM in assay [2]; 9.53 µM in [3]; greater than 100 µM in assay [4]; greater than 100 µM in assay [5]; greater than 100 µM in [6]. The TGI in assay [7], in assay [8] and in assay [9] was greater than 100 µM throughout.
Regarding `COC(=O)c1c(O)ccc2[nH]c(C)c(C#N)c12`, the GI50 is 47.9 µM in [10]; 20.6 µM in [2]; 27.4 µM in [3]; 46.3 µM in assay [4]; 22.7 µM in [5]; 24.3 µM in assay [6]. For the same compound, the GI50 is greater than 100 µM in assay [7], 40 µM in assay [8] and 38.7 µM in assay [9]. In addition, the TGI in assay [10] is 94 µM; in assay [2], greater than 100 µM; in [3], 92.9 µM; in [4] it was greater than 100 µM; in [5], 81 µM; in assay [6], greater than 100 µM. For the same compound, the concentration for total growth inhibition (TGI) in [7], in assay [8] and in assay [9] was greater than 100 µM each time.
Take `COC(=O)C(Cc1ccccc1)N/C=C\C(=O)c1ccc(Cl)cc1` (centres undefined): the GI50 in assay [1] was 18.6 µM; in assay [2], 23.6 µM; in assay [3], 14.8 µM; in assay [4], 26.2 µM; in assay [5] it was 25.1 µM; in [6] it was 19.3 µM. In addition, the GI50 in assay [7] was 59.9 µM; in [8], 31.6 µM; in [9], 18.8 µM. Besides, the TGI in assay [1] came out at 45.1 µM; in assay [2] it was 54.9 µM; in assay [3], 35.8 µM; in assay [4] it was 66.4 µM; in assay [5] it was 67.6 µM; in [6], 33.5 µM. The concentration for total growth inhibition (TGI) is greater than 100 µM in assay [7], 67.4 µM in assay [8] and 45 µM in assay [9].

By GI50 is commonly meant the concentration giving 50% growth inhibition. By TGI is commonly meant the concentration at which net growth stops.
